“And” between values parts separate entries of the source, which are not always exact repeats. Equal values may be shown once. “Also recorded” adds a separate entry of the source.
Tests used:
[1] = system: kidney tissues of treated or untreated rats; experiment: Real-time qRT-PCR of signature amplicons, validation stage, labeled and un-labeled samples (Table 23); details: for H31883_DB71_seg13 normalized qRT-PCR result / MUSCYCG1R_DB81_seg19-20 normalized qRT-PCR result / W41270_DB81_seg11 normalized qRT-PCR result: labeled sample, one line per animal
Method in brief: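 Each of four signature genes measured as wild-type and alternative-splice amplicons by qRT-PCR in treated or untreated rat kidney. Normalization was two-step: housekeeping-gene factor, then inter-plate correction from shared samples on a shuffled control plate; final values rescaled for display.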

[2] = system: Sprague-Dawley Crl:CD(SD) rats; experiment: Rat toxicity study, single, 5-day and 28-day treatment (clinical observation, clinical pathology, autopsy, organ weights, histopathology); details: for Organ weight: compared with controls;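 on all read-outs here: control rats received saline intraperitoneally, and the organs examined were adrenals, brain, kidneys, liver, spleen and thymus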
Method: Control animals were treated intraperitoneal with saline.
Randomization and group allocation: prior to treatment, the animals were assigned to the experimental groups based on their body weight. Mean body weight of each group at randomization was not deviate±20% of the mean population weight. Males and females were randomized separately. For the randomization, a computer program was used.
The day before autopsy, urinalysis was performed and blood samples were taken for hematology and clinical chemistry examinations.
On the day of autopsy the animals were anaesthetized with isoflurane, blood was collected for PBMC isolation then subjected to autopsy. Tissues and organs (adrenals, brain, kidneys, liver, spleen and thymus) were weighed and subjected to gross pathological and histopathological examinations.

[3] = day1, female rat kidney, listed as Cis
[4] = day1, male rat kidney, listed as Cis
[5] = day28, female rat kidney, listed as Cis
[6] = day28, male rat kidney, listed as Cis
[7] = labeled samples, day1, kidney of individual male/female rats, listed as Cis
[8] = labeled samples, day5, kidney of individual male/female rats, listed as Cis
[9] = labeled samples, day28, kidney of individual male/female rats, listed as Cis
[10] = 28-day treatment, male and female rats
[11] = labeled samples, day1, kidney of individual male/female rats
[12] = labeled samples, day5, kidney of individual male/female rats
[13] = labeled samples, day28, kidney of individual male/female rats

Compound: N.N.[Cl][Pt][Cl] [Cisplatin]
- H31883_DB71_seg13 normalized qRT-PCR result [1, 3]: 0.844 and 1.209 and 1.345
- MUSCYCG1R_DB81_seg19-20 normalized qRT-PCR result [1, 3]: 0.631 and 0.788 and 0.899
- W41270_DB81_seg11 normalized qRT-PCR result [1, 3]: 0.81 and 1.261 and 1.096
- H31883_DB71_seg13 normalized qRT-PCR result [1, 4]: 0.799 and 1.09 and 0.902
- MUSCYCG1R_DB81_seg19-20 normalized qRT-PCR result [1, 4]: 0.495 and 1.64 and 0.811
- W41270_DB81_seg11 normalized qRT-PCR result [1, 4]: 0.815 and 2.455 and 1.176
- H31883_DB71_seg13 normalized qRT-PCR result [1, 5]: 1.749 and 0.786 and 1.864
- MUSCYCG1R_DB81_seg19-20 normalized qRT-PCR result [1, 5]: 2.301 and 1.555 and 3.336
- W41270_DB81_seg11 normalized qRT-PCR result [1, 5]: 2.504 and 2.643 and 5.783
- H31883_DB71_seg13 normalized qRT-PCR result [1, 6]: 1.587 and 0.786 and 1.371
- MUSCYCG1R_DB81_seg19-20 normalized qRT-PCR result [1, 6]: 4.504 and 1.428 and 1.753
- W41270_DB81_seg11 normalized qRT-PCR result [1, 6]: 5.917 and 3.371 and 3.008
- H31883_DB71_seg13 normalized qRT-PCR expression (Cyclin-G1 (CCNG1) transcript) [1, 7]: 0.668 and 0.853 and 1.416 and 2.092 and 2.559 and 1.134
- MUSCYCG1R_DB81_seg19-20 normalized qRT-PCR expression [1, 7]: 0.806 and 1.514 and 1.492 and 3.259 and 2.003 and 1.277
- W41270_DB81_seg11 normalized qRT-PCR expression (tumor necrosis factor receptor superfamily, member 12a transcript) [1, 7]: 0.679 and 0.759 and 1.331 and 1.029 and 1.224 and 0.496
- AI045075_DB71_seg6 normalized qRT-PCR expression (Interferon stimulated exonuclease 20 (ISG20) transcript) [1, 8]: 1.804 and 1.683 and 4.298 and 1.503 and 0.93 and 1.09
- H31883_DB71_seg13 normalized qRT-PCR expression (Cyclin-G1 (CCNG1) transcript) [1, 8]: 3.816 and 5.526 and 3.771 and 1.509 and 1.642 and 2.695
- MUSCYCG1R_DB81_seg19-20 normalized qRT-PCR expression [1, 8]: 2.034 and 4.156 and 4.947 and 0.981 and 3.172 and 1.643
- W41270_DB81_seg11 normalized qRT-PCR expression (tumor necrosis factor receptor superfamily, member 12a transcript) [1, 8]: 1.262 and 3.597 and 1.404 and 0.843 and 2.113 and 0.705
- W64472_DB81_seg2 normalized qRT-PCR expression (Interferon stimulated exonuclease 20 (ISG20) transcript) [1, 8]: 1.795 and 3.64 and 6.414 and 1.976 and 1.448 and 1.265
- W83813_DB81_seg27 normalized qRT-PCR expression [1, 8]: 1.716 and 0.857 and 1.461 and 1.366 and 0.758 and 1.265
- H31883_DB71_seg13 normalized qRT-PCR expression (Cyclin-G1 (CCNG1) transcript) [1, 9]: 4.41 and 2.839 and 2.398 and 2.653 and 5.592 and 3.563
- MUSCYCG1R_DB81_seg19-20 normalized qRT-PCR expression [1, 9]: 3.509 and 3.443 and 1.813 and 3.094 and 7.02 and 3.473
- W41270_DB81_seg11 normalized qRT-PCR expression (tumor necrosis factor receptor superfamily, member 12a transcript) [1, 9]: 4.741 and 4.104 and 2.053 and 1.904 and 4.516 and 3.866

Compound: Gentamycin
- Autopsy findings ([2]; 5-day treatment): No effect
- Body weight gain ([2]; 5-day treatment): Body weight gain was decreased in females
- Clinical pathology ([2]; 5-day treatment): elevated urea nitrogen levels found in females; also recorded: ♀: ↑↑BUN
- Histopathology / renal damage ([2]; 5-day treatment): No nephrotoxicity was observed; also recorded: No renal damage was found at histopathological examination
- Organ weight ([2]; 5-day treatment): No effect
- Body weight and body weight gain ([2]; 28-day treatment): affected body weight gain of animals in both sexes; also recorded: Effect on body weight and body weight gain was seen
- Histopathology / nephrotoxicity ([2]; 28-day treatment): Signs of nephrotoxicity occurred in all animals of both sexes; also recorded: nephrotoxic effect of the test item was confirmed by histopathology; also recorded: basophilia in the cortex
- Decreasing order of nephrotoxicity at histopathological examination ([2]; 28-day treatment, females): Cisplatin, Cadmium chloride, Gentamycin, Doxorubicin and Tobramycin in females
- Autopsy findings [2, 10]: enlarged and discolored kidneys were observed in males; also recorded: Alterations were found in the kidneys; also recorded: ♂♀: ↑↑, pale
- Organ weight [2, 10]: Kidney weight increased in both sexes and Increased weights of kidneys in males and Higher weights of kidneys in females and Weights of spleen were higher in Gentamycin treated males and Decreased thymus weights were found in Gentamycin and Tobramycin treated males and ↑↑
- Decreasing order of nephrotoxicity at histopathological examination ([2]; 28-day treatment, males): Cisplatin, Gentamycin, Tobramycin and Doxorubicin in males
- H31883_DB71_seg13 normalized qRT-PCR result ([1]; day1, female rat kidney): 0.963 and 0.98 and 0.898
- MUSCYCG1R_DB81_seg19-20 normalized qRT-PCR result ([1]; day1, female rat kidney): 1.251 and 0.889 and 2.053
- W41270_DB81_seg11 normalized qRT-PCR result ([1]; day1, female rat kidney): 0.763 and 0.963 and 1.408
- H31883_DB71_seg13 normalized qRT-PCR result ([1]; day1, male rat kidney): 1.02 and 1.409 and 1.161
- MUSCYCG1R_DB81_seg19-20 normalized qRT-PCR result ([1]; day1, male rat kidney): 1.072 and 1.848 and 1.221
- W41270_DB81_seg11 normalized qRT-PCR result ([1]; day1, male rat kidney): 1.567 and 1.869 and 1.48
- H31883_DB71_seg13 normalized qRT-PCR result ([1]; day28, female rat kidney): 0.421 and 0.441 and 0.434
- MUSCYCG1R_DB81_seg19-20 normalized qRT-PCR result ([1]; day28, female rat kidney): 0.967 and 2.632 and 1.78
- W41270_DB81_seg11 normalized qRT-PCR result ([1]; day28, female rat kidney): 0.806 and 1.079 and 1.164
- H31883_DB71_seg13 normalized qRT-PCR result ([1]; day28, male rat kidney): 0.852 and 0.857 and 0.756
- MUSCYCG1R_DB81_seg19-20 normalized qRT-PCR result ([1]; day28, male rat kidney): 1.734 and 3.06 and 1.469
- W41270_DB81_seg11 normalized qRT-PCR result ([1]; day28, male rat kidney): 1.55 and 1.353 and 1.245
- H31883_DB71_seg13 normalized qRT-PCR expression (Cyclin-G1 (CCNG1) transcript) [1, 11]: 0.772 and 1.118 and 0.987 and 1.115 and 0.84 and 1.053
- MUSCYCG1R_DB81_seg19-20 normalized qRT-PCR expression [1, 11]: 0.842 and 1.155 and 1.361 and 2.011 and 1.387 and 2.861
- W41270_DB81_seg11 normalized qRT-PCR expression (tumor necrosis factor receptor superfamily, member 12a transcript) [1, 11]: 1.361 and 1.037 and 0.904 and 1.08 and 2.078 and 0.85
- Label: true label (Normal/Toxic), known renal toxic effect ([1]; labeled samples, day5): Toxic
- AI045075_DB71_seg6 normalized qRT-PCR expression (Interferon stimulated exonuclease 20 (ISG20) transcript) [1, 12]: 1.337 and 1.374 and 1.402 and 1.778 and 1.636 and 1.256
- H31883_DB71_seg13 normalized qRT-PCR expression (Cyclin-G1 (CCNG1) transcript) [1, 12]: 0.948 and 1.09 and 0.78 and 1.142 and 1.402 and 1.515
- MUSCYCG1R_DB81_seg19-20 normalized qRT-PCR expression [1, 12]: 1.085 and 0.993 and 0.955 and 1.442 and 1.842 and 1.644
- W41270_DB81_seg11 normalized qRT-PCR expression (tumor necrosis factor receptor superfamily, member 12a transcript) [1, 12]: 0.983 and 0.954 and 1.104 and 1.699 and 0.82 and 2.64
- W64472_DB81_seg2 normalized qRT-PCR expression (Interferon stimulated exonuclease 20 (ISG20) transcript) [1, 12]: 1.733 and 2.048 and 1.962 and 1.427 and 1.403 and 1.53
- W83813_DB81_seg27 normalized qRT-PCR expression [1, 12]: 1.688 and 1.042 and 0.702 and 1.441 and 1.395 and 0.76
- H31883_DB71_seg13 normalized qRT-PCR expression (Cyclin-G1 (CCNG1) transcript) [1, 13]: 0.853 and 0.861 and 0.553 and 0.817 and 0.554 and 0.842
- MUSCYCG1R_DB81_seg19-20 normalized qRT-PCR expression [1, 13]: 0.863 and 1.072 and 0.617 and 0.865 and 0.729 and 1.661
- W41270_DB81_seg11 normalized qRT-PCR expression (tumor necrosis factor receptor superfamily, member 12a transcript) [1, 13]: 1.614 and 1.342 and 1.315 and 1.194 and 1.188 and 1.941
